Results on 13 molecules are retold here after patent US20230203041A1, “ANTAGONISTS OF THE ADENOSINE A2A RECEPTOR” (AdoRx Therapeutics Limited, priority 2020, published 2023).

The target of experiment [1] is T1, human Adenosine A2a receptor (Homo sapiens, UniProt P29274).
T1 construct: expressed in transfected cells; host or cells: CHO cell membranes
The experiment in a line: Adenosine receptor TR-FRET binding assay (CA200645 displacement), A2a. The conditions noted are these: 100 nM CA200645, CHO cell membranes, 2 hours at room temperature. A general note: Time-resolved FRET reads energy transfer from a long-lived donor to a nearby acceptor.

Experiment [2] concerns the target T2, human Adenosine A3 receptor (Homo sapiens, UniProt P0DMS8).
T2 sequence (P0DMS8 1-318): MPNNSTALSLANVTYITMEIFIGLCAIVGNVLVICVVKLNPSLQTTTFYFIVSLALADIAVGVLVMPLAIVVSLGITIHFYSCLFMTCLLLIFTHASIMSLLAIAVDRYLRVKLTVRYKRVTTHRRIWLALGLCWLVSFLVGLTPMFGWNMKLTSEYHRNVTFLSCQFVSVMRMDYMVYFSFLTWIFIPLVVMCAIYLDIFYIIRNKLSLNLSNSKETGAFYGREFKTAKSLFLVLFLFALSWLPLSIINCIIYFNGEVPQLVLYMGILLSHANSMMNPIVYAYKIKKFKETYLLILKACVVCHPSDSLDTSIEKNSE
The experiment in a line: Adenosine receptor TR-FRET binding assay (CA200645 displacement), A3.

In experiment [3] the target is T3, human Adenosine A1 receptor (Homo sapiens, UniProt P30542).
T3 sequence (P30542 1-326): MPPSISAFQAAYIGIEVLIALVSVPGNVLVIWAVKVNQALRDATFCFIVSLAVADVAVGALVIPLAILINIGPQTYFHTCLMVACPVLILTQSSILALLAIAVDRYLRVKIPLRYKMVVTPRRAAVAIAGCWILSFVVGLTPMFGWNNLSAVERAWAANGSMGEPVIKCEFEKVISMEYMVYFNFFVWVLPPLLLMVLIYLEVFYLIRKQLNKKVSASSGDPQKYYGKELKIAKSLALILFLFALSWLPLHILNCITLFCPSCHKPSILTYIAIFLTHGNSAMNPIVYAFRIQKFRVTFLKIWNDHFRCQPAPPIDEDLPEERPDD
The experiment in a line: Adenosine receptor TR-FRET binding assay (CA200645 displacement), A1.

In experiment [4] the target is T4, human Adenosine A2b receptor (Homo sapiens, UniProt P29275).
T4 construct: expressed in transfected cells; host or cells: CHO cell membranes
T4 sequence (P29275 1-332): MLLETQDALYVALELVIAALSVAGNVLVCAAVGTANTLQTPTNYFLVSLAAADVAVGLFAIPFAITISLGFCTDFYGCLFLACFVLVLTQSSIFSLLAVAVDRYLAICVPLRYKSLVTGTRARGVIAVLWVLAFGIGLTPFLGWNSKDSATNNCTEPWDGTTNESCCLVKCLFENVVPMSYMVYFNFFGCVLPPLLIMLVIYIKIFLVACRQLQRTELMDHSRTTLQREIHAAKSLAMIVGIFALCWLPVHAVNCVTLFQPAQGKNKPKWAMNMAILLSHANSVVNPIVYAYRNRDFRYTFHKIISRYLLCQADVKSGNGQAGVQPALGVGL
Description: Adenosine receptor TR-FRET binding assay (CA200645 displacement), A2b. The conditions noted are these: 30 nM CA200645, CHO cell membranes, 2 hours at room temperature.

One may read the Ki as a measure of affinity in units of concentration, obtained from inhibition or displacement. A higher Ki goes with a looser hold on the target.

Where a name gives a salt, the structure may show the parent alone.

T1 sequence (P29274 whole entry): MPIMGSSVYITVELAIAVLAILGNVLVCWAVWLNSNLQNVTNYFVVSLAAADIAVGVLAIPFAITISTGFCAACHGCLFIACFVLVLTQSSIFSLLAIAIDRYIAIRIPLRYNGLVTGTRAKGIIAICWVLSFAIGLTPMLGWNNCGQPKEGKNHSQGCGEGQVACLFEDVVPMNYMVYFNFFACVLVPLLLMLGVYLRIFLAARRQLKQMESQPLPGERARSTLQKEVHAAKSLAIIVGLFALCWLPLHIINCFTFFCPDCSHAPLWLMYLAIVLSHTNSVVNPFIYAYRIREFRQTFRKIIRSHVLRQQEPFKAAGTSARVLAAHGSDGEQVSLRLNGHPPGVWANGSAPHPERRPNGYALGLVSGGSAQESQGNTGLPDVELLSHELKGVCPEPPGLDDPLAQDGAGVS

Consider `Cc1cc(-c2c(-c3cccc(C#N)c3)nn3ccc(N4CCN[C@H](C(C)(C)O)C4)nc23)cc(Cl)n1` [Example 2.41], for which the inhibition constant (Ki) in experiment [1] was 1.7 nM; in experiment [2] it was more than 1000 nM; in experiment [3] it was 82 nM; in experiment [4], 2 nM.

In the case of `Cc1cc(-c2c(-c3cccc(C#N)c3)nn3ccc(NC4CCN(C)CC4)nc23)cc(Cl)n1` [Example 2.42], the inhibition constant Ki in experiment [1] was 0.5 nM; in experiment [2], more than 1000 nM; in experiment [3], 149 nM; in experiment [4] it was 4 nM.

`Cc1cc(-c2c(-c3cccc(C#N)c3)nn3ccc(NC[C@@H]4COCCN4)nc23)cc(Cl)n1` [Example 4.1]: the inhibition constant (Ki) in experiment [1] was 38.5 nM; in experiment [2] it was more than 1000 nM; in experiment [3], 522 nM; in experiment [4] it was 163 nM.

`Cc1cc(-c2c(-c3cccc(C#N)c3)nn3ccc(N[C@@H]4CCNC4)nc23)cc(Cl)n1` [Example 4.3]: the Ki in experiment [1] was 1.2 nM; in experiment [2], more than 1000 nM; in experiment [3], 8 nM; in experiment [4], 3 nM.

Consider `Cc1cc(-c2c(-c3cccc(C#N)c3)nn3ccc(N4C[C@@H]5NCCO[C@H]5C4)nc23)cc(Cl)n1` [Example 4.4], for which the inhibition constant Ki is 3.2 nM in experiment [1], more than 1000 nM in experiment [2], 1100 nM in experiment [3] and 149 nM in experiment [4].

In the case of `Cc1cc(-c2c(-c3cccc(C#N)c3)nn3ccc(N[C@H]4CCNC4)nc23)cc(Cl)n1` [Example 4.6], the Ki is 5.1 nM in experiment [1], more than 1000 nM in experiment [2], 230 nM in experiment [3] and 4 nM in experiment [4].

`Cc1cc(-c2c(-c3cccc(C#N)c3)nn3ccc(N[C@H]4CCCNC4)nc23)cc(Cl)n1` [Example 4.7]: the Ki in experiment [1] was 13.9 nM; in experiment [2] it was more than 1000 nM; in experiment [3], 213 nM; in experiment [4], 6 nM.

For the molecule `Cc1cc(-c2c(-c3cccc(C#N)c3)nn3ccc(N[C@H](C)[C@H](O)CO)nc23)cc(Cl)n1` [Example 4.8, 3-[3-(2-Chloro-6-methyl-4-pyridyl)-5-[[(1R,2S)-2,3-dihydroxy-1-methyl-propyl]amino]pyrazolo[1,5-a]pyrimidin-2-yl]benzonitrile], the Ki in experiment [1] was 0.5 nM; in experiment [2], more than 1000 nM; in experiment [3], 7 nM; in experiment [4], 6 nM.

Consider `Cc1cc(-c2c(-c3cccc(C#N)c3)nn3ccc(N[C@@H](C)[C@H](O)CO)nc23)cc(Cl)n1` [Example 4.9, 3-[3-(2-Chloro-6-methyl-4-pyridyl)-5-[[(1S,2S)-2,3-dihydroxy-1-methyl-propyl]amino]pyrazolo[1,5-a]pyrimidin-2-yl]benzonitrile], for which the inhibition constant (Ki) in experiment [1] is 1.1 nM; in experiment [2] it was more than 1000 nM; in experiment [3], 5 nM; in experiment [4], 12 nM.

Take `Cc1cc(-c2c(-c3cccc(C#N)c3)nn3ccc(NCC(C)(C)N)nc23)cc(Cl)n1` [Example 4.10, trifluoroacetate]: the Ki in experiment [1] is 3.3 nM; in experiment [2], more than 1000 nM; in experiment [3], 43 nM; in experiment [4], 12 nM.

For the molecule `Cc1cc(-c2c(-c3cccc(C#N)c3)nn3ccc(NCC4(O)CNC4)nc23)cc(Cl)n1` [Example 4.11, 3-[3-(2-chloro-6-methyl-4-pyridyl)-5-[(3-hydroxyazetidin-3-yl)methylamino]pyrazolo[1,5-a]pyrimidin-2-yl]benzonitrile trifluoroacetate], the Ki was 6.8 nM in experiment [1], more than 1000 nM in experiment [2], 53 nM in experiment [3] and 1 nM in experiment [4].

`Cc1cc(-c2c(-c3cccc(C#N)c3)nn3ccc(C(=O)NCCC(C)(C)O)nc23)cc(Cl)n1` [Example 5.3]: the Ki in experiment [1] was 0.3 nM; in experiment [2], more than 1000 nM; in experiment [3] it was 224 nM; in experiment [4], 20 nM.

On to `Cc1cc(-c2c(-c3cccc(C#N)c3)nn3ccc(C(=O)NCCN4CCN(c5ccccc5)CC4)nc23)cc(Cl)n1` [Example 5.4], for which the inhibitory constant (Ki) in experiment [1] was 1.3 nM; in experiment [2] it was more than 1000 nM; in experiment [3] it was 107 nM; in experiment [4], 19 nM.
